Source: PubChem BioAssay (NCI)
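Cells were grown in 96-well plates and exposed to each compound for 48 hours at five concentrations; endpoints were interpolated linearly between bracketing concentrations, or set to the highest concentration if not reached. The concentration for full growth arrest is given as TGI.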

Columns and labels:
Assay in all cases: growth of human tumour cells (NCI), 48 h
[1] = tested on: BT-549 breast
[2] = tested on: PC-3 prostate
[3] = tested on: SF-268 CNS
[4] = tested on: HOP-62 NSCLC
[5] = tested on: TK-10 renal
[6] = tested on: MDA-N
[7] = tested on: COLO 205 colon
[8] = tested on: 786-0 renal
[9] = tested on: SN12C renal
[10] = tested on: SNB-19 CNS
[11] = tested on: ACHN renal
[12] = tested on: CCRF-CEM leukemia
[13] = tested on: EKVX NSCLC
[14] = tested on: OVCAR-5 ovarian
[15] = tested on: HL-60(TB) leukemia
[16] = tested on: NCI-H226 lung
[17] = tested on: OVCAR-3 ovarian
[18] = tested on: OVCAR-4 ovarian
[19] = tested on: A498 renal
[20] = tested on: T-47D breast
[21] = tested on: HOP-92 NSCLC
[22] = tested on: HCT-15 colon
[23] = tested on: U251 CNS
[24] = tested on: HCT-116 colon
[25] = tested on: K-562 leukemia
[26] = tested on: RPMI-8226 leukemia
[27] = tested on: NCI-H460 lung
[28] = tested on: NCI/ADR-RES ovarian
[29] = tested on: SK-MEL-28 melanoma
[30] = tested on: SR leukemia
[31] = tested on: A549 NSCLC
[32] = tested on: SK-MEL-5 melanoma
[33] = tested on: MDA-MB-435
[34] = tested on: HT29 colon
[35] = tested on: MOLT-4 leukemia
[36] = tested on: MALME-3M melanoma
[37] = tested on: MDA-MB-231 breast
[38] = tested on: M14 melanoma
[39] = tested on: HS 578T breast
[40] = tested on: SK-OV-3 ovarian
[41] = tested on: SF-539 CNS
[42] = tested on: HCC-2998 colon
[43] = tested on: SF-295 CNS
[44] = tested on: SK-MEL-2 melanoma
[45] = tested on: SNB-75 CNS
[46] = tested on: UO-31 renal
[47] = tested on: LOX IMVI melanoma
[48] = tested on: SW-620 colon
[49] = tested on: KM12 colon
[50] = tested on: CAKI-1 renal
[51] = tested on: IGROV1 ovarian
[52] = tested on: MCF7 breast
[53] = tested on: RXF 393 renal
[54] = tested on: NCI-H23 lung
[55] = tested on: OVCAR-8 ovarian
[56] = tested on: UACC-257 melanoma
[57] = tested on: DU-145 prostate
[58] = tested on: NCI-H522 lung
[59] = tested on: UACC-62 melanoma

Measured: TGI

COc1ccc(COCC[C@H](C)OC2OC(CO[Si](C)(C)C(C)(C)C)C(O)C(O)C2O)cc1 (some centres undefined)
> 100 µM: [1] | [2] | [3] | [4] | [5] | [6] | [7] | [8] | [9] | [10] | [11] | [12] | [13] | [14] | [15] | [16] | [17] | [18] | [19] | [20] | [21] | [22] | [23] | [24] | [25] | [26] | [27] | [28] | [29] | [30] | [31] | [32] | [33] | [34] | [35] | [36] | [37] | [38] | [39] | [40] | [41] | [42] | [43] | [44] | [45] | [46] | [47] | [48] | [49] | [50] | [51] | [52] | [53] | [54] | [55] | [56] | [57] | [58] | [59]
